Source: patent US11491168B2, “Combination of Bcl-2/Bcl-xL inhibitors and chemotherapeutic agent and use thereof” (ASCENTAGE PHARMA (SUZHOU) CO., LTD., priority 2019, dated 2022)

Legend:
[1] = system: small cell lung cancer cell line NCI-H146, NCI-H69 and NCI-H446; experiment: Cell Titer-Glo luminescent cell viability assay (CTG); assay type: cell-based, human; conditions: small cell lung cancer cells
Procedure: Cells in the logarithmic growth phase were collected for Cell Titer-Glo® (CTG) luminescence cell viability assay. 10 μL of the diluted drug solution was added into a 96-well plate while 10 μL of the medium was added into the 96-well control plate. For the study of the combination, 5 μL of the indicated test reagent was added to each well. At the end of the study, the 96-well plates were equilibrated to room temperature, and then 30 μL of CTG reagent (protected from light) was added to each well to induce cell lysis. The luminescent signal was then detected using a Biotek Synergy H1 plate reader. Percent cell viability (%) was calculated using the mean luminescence value (LN) of the replicate wells (blank) of the control group, according to the following formula: percent cell viability (%)=(fluorescence signal value of experimental cells−fluorescence signal value of negative control cell)/(fluorescence signal value of control cells−fluorescence signal value of negative control cells)×100%.
Cell viability curve was plotted using Graphpad Prism 6.0 software (Golden software, Golden, Colo., USA). For the study of the drug combination, the Combination Index (CI) was calculated using CalcuSyn software (BIOSOFT, UK) to further analyze the combined effects of the indicated drugs (Chou, Cancer Research 70, 440-446). […]

[2] = system: AGS gastric cancer cell line; experiment: CCK-8 cell viability, AGS; assay type: cell-based; conditions: within 72 hours
Text: (§1) Thus, the sensitivity of gastric cancer cells to Compound 31 is closely related to the expression of Bcl-2, Bcl-xL and Bax.

[3] = system: NCI-N87 gastric cancer cell line; experiment: CCK-8 cell viability, NCI-N87; assay type: cell-based; conditions: Homo sapiens; NCI-N87, within 72 hours
Text: as §1

[4] = system: AGS and NCI-N87 gastric cancer cell lines; experiment: cell cycle assay; assay type: cell-based
AGS cells = experiment: AnnexinV/PI staining apoptosis, AGS; assay type: cell-based; conditions: 48 hours, Compound 31 0.3 μM, 5-FU 3 μM
Procedure: (§2) The inventors chose to combine Compound 31 with one of the most common chemotherapeutic drugs in clinic, 5-fluorouracil (5-FU). In order to investigate the effect and the potential mechanisms of Compound 31 and 5-FU on the growth of gastric cancer cells, the inventors used the AnnexinV/PI staining to detect the apoptosis of two gastric cancer cells, AGS and NCI-N87, 48 hours after the treatment with Compound 31 (0.3 μM), 5-FU (3 μM), and the combination at specified concentrations. […] In NCI-N87 cells, the combination group also achieved a higher apoptosis rate than the mono therapy groups, Compound 31 or 5-FU as a single agent leading to apoptosis rates of 24% or 18% while the combination group reaching an apoptosis rate of 46% (FIG. 29(a)).

NCI-N87 cells [5] = experiment: AnnexinV/PI staining apoptosis, NCI-N87; assay type: cell-based; conditions: NCI-N87, 48 hours; Compound 31 0.3 μM, 5-FU 3 μM
Procedure: as §2

NCI-N87 cells [6] = experiment: CCK-8 anti-proliferation, NCI-N87, Compound 31 with docetaxel; assay type: cell-based; conditions: Homo sapiens; NCI-N87, 72 hours, Compound 31 alone
Procedure: Briefly, NCI-N87 cells were seeded in 96-well plates and treated with different Compound 31 at different concentrations for 72 hours. […] Each concentration was prepared in triplicates. At the end of treatment, CCK-8 agents (10 μL/well) were added to the 96-well plate, and incubated with the cells for 2 hours. The OD450 value was measured using a microplate reader.

- IC50 [2]: 1150 ± 560 nM
- IC50 [3]: 901 ± 230 nM
Compound: Cc1c(S(C)(=O)=O)c(-c2cc(F)cc(N3CCN(c4ccc(NS(=O)(=O)c5ccc(N[C@H](CCN6CCC(C(=O)O)CC6)CSc6ccccc6)c(S(=O)(=O)C(F)(F)F)c5)cc4)CC3)c2)c(-c2ccc(Cl)cc2)n1C(C)C [Compound 31, (R)-1-(3-(4-(N-(4-(4-(3-(2-(4-chlorophenyl)-1-isopropyl-5-methyl-4-(methylsulfonyl)-1H-pyrrol-3-yl)-5-fluorophenyl)piperazin-1-yl)phenyl)sulfamoyl)-2-(trifluoromethylsulfonyl)phenylamino)-4-(phenylthio)butyl)piperidine-4-carboxylic acid]
- inhibition of proliferation as a single agent [1]: can inhibit proliferation of small cell lung cancer cells
- effect on cell cycle [4]: no significant effect on cell cycle
- apoptosis rate (AGS cells): approximately 22%
- apoptosis rate (NCI-N87 cells [5]): 24%
- IC50 (NCI-N87 cells [6]): 405 nM
